Toxic doses and inconclusive results are not listed. Rule for the calls: active = survival T/C of 150% or more; inactive = T/C below 125% in these data.
System: CD2F1 mice, L1210 leukemia ip, survival T/C
Test: NCI In Vivo Anticancer Drug Screen. Data for tumor model L1210 Leukemia (intraperitoneal) in CD2F1 (CDF1) mice
Conditions: higher = longer survival
Summary of the method: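 Vehicle-treated tumor-bearing mice served as controls (C) for compound-treated mice (T). Reported figure is T divided by C.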

[1] = endpoint: mean survival time, dose: 100.0 mg/kg/injection, schedule: Q01DX001 (ip), vehicle: saline
[2] = endpoint: mean survival time, dose: 200.0 mg/kg/injection, schedule: Q01DX001 (ip), vehicle: saline
[3] = endpoint: mean survival time, dose: 400.0 mg/kg/injection, schedule: Q01DX001 (ip), vehicle: saline
[4] = endpoint: mean survival time, dose: 100.0 mg/kg/injection, schedule: Q04DX003 (ip), vehicle: saline
[5] = endpoint: mean survival time, dose: 50.0 mg/kg/injection, schedule: Q01DX009 (ip), vehicle: saline with Tween-80
[6] = endpoint: mean survival time, dose: 100.0 mg/kg/injection, schedule: Q01DX009 (ip), vehicle: saline with Tween-80

Measured: T/C

COC(=O)C1C2C=CC(C2)C1C(=O)O (stereo unspecified)
inactive: [1] 100 % of control | [2] 98 % of control | [3] 103 % of control

Cc1cc(N(CCOS(C)(=O)=O)CCOS(C)(=O)=O)ccc1N=O
inactive: endpoint: mean survival time, dose: 0.25 mg/kg/injection, schedule: Q01DX015 (ip), vehicle: saline 119 % of control | endpoint: mean survival time, dose: 0.5 mg/kg/injection, schedule: Q01DX015 (ip), vehicle: saline 121 % of control | endpoint: mean survival time, dose: 1.0 mg/kg/injection, schedule: Q01DX010 (ip), vehicle: saline 101 % of control | endpoint: mean survival time, dose: 1.0 mg/kg/injection, schedule: Q01DX015 (ip), vehicle: saline 116 % of control | endpoint: mean survival time, dose: 2.0 mg/kg/injection, schedule: Q01DX015 (ip), vehicle: saline 97 % of control

O=C(O)CC1OCC=C2C[N+]3([O-])CCC45c6ccccc6NC4C1C2CC53 (stereo unspecified)
inactive: endpoint: mean survival time, dose: 75.0 mg/kg/injection, schedule: Q01DX001 (ip), vehicle: other 100 % of control | endpoint: mean survival time, dose: 150.0 mg/kg/injection, schedule: Q01DX001 (ip), vehicle: other 98 % of control

[Cl][Pt+2][Cl].[NH-]c1ccccc1-c1ccccc1[NH-]
inactive: endpoint: mean survival time, dose: 3.13 mg/kg/injection, schedule: Q04DX003 (ip), vehicle: saline 104 % of control | endpoint: mean survival time, dose: 6.25 mg/kg/injection, schedule: Q04DX003 (ip), vehicle: saline 109 % of control | endpoint: mean survival time, dose: 12.5 mg/kg/injection, schedule: Q04DX003 (ip), vehicle: saline 120 % of control | endpoint: mean survival time, dose: 25.0 mg/kg/injection, schedule: Q04DX003 (ip), vehicle: saline 113 % of control | endpoint: mean survival time, dose: 50.0 mg/kg/injection, schedule: Q04DX003 (ip), vehicle: saline 109 % of control | [4] 94 % of control

COc1ccc(SSc2ccc(OC)cc2)cc1
inactive: [1] 100 % of control | [2] 103 % of control | [3] 97 % of control

CC(C)OC(=O)N(C(=O)OC(C)C)c1ccccc1
inactive: endpoint: mean survival time, dose: 100.0 mg/kg/injection, schedule: Q04DX002 (ip), vehicle: saline with Tween-80 94 % of control | endpoint: mean survival time, dose: 200.0 mg/kg/injection, schedule: Q04DX002 (ip), vehicle: saline with Tween-80 108 % of control | endpoint: mean survival time, dose: 400.0 mg/kg/injection, schedule: Q04DX002 (ip), vehicle: saline with Tween-80 94 % of control

Cc1cn(C2CC(O)C(CO)O2)c(=O)nc1N1CCCC1 (stereo unspecified)
inactive: endpoint: median survival time, dose: 12.5 mg/kg/injection, schedule: Q01DX005 (ip), vehicle: water 103 % of control | endpoint: median survival time, dose: 25.0 mg/kg/injection, schedule: Q01DX005 (ip), vehicle: water 108 % of control | endpoint: median survival time, dose: 50.0 mg/kg/injection, schedule: Q01DX005 (ip), vehicle: water 102 % of control | endpoint: median survival time, dose: 100.0 mg/kg/injection, schedule: Q01DX005 (ip), vehicle: water 101 % of control | endpoint: median survival time, dose: 200.0 mg/kg/injection, schedule: Q01DX005 (ip), vehicle: water 102 % of control

COc1ccc(/C=N/NC(=O)CNC(=O)Nc2ccc(F)cc2)cc1OC
inactive: [5] 96 % of control | [6] 92 % of control | endpoint: mean survival time, dose: 200.0 mg/kg/injection, schedule: Q01DX009 (ip), vehicle: saline with Tween-80 92 % of control

Nc1cc2c(c[n+](Cc3ccccc3)c3ccccc23)c2ccccc12
inactive: endpoint: mean survival time, dose: 0.39 mg/kg/injection, schedule: Q04DX003 (ip), vehicle: other 104 % of control | endpoint: mean survival time, dose: 0.78 mg/kg/injection, schedule: Q04DX003 (ip), vehicle: other 98 % of control | endpoint: mean survival time, dose: 1.56 mg/kg/injection, schedule: Q04DX003 (ip), vehicle: other 104 % of control | endpoint: mean survival time, dose: 6.25 mg/kg/injection, schedule: Q04DX003 (ip), vehicle: other 91 % of control

CN=C(NC)N/N=C(/c1ccc(Br)cc1)c1ccc(C(F)(F)F)cc1
inactive: endpoint: mean survival time, dose: 12.5 mg/kg/injection, schedule: Q04DX002 (ip), vehicle: saline with Tween-80 90 % of control | endpoint: mean survival time, dose: 25.0 mg/kg/injection, schedule: Q04DX002 (ip), vehicle: saline with Tween-80 90 % of control | endpoint: mean survival time, dose: 50.0 mg/kg/injection, schedule: Q04DX003 (ip), vehicle: saline with Tween-80 98 % of control | endpoint: mean survival time, dose: 100.0 mg/kg/injection, schedule: Q01DX001 (ip), vehicle: saline sonified 97 % of control | endpoint: mean survival time, dose: 200.0 mg/kg/injection, schedule: Q01DX001 (ip), vehicle: saline sonified 93 % of control

CC12CCCC1=[N+]1CCCCC1CC2=O (stereo unspecified)
inactive: [4] 101 % of control | endpoint: mean survival time, dose: 200.0 mg/kg/injection, schedule: Q04DX003 (ip), vehicle: saline 101 % of control

CN(C)CC(=O)N/N=C\c1ccc([N+](=O)[O-])s1
inactive: endpoint: mean survival time, dose: 50.0 mg/kg/injection, schedule: Q01DX009 (ip), vehicle: saline 91 % of control | endpoint: mean survival time, dose: 100.0 mg/kg/injection, schedule: Q01DX009 (ip), vehicle: saline 93 % of control

O=C(N/N=C/c1ccc(Cl)cc1)C(O)(c1ccccc1)c1ccccc1
inactive: endpoint: mean survival time, dose: 25.0 mg/kg/injection, schedule: Q01DX009 (ip), vehicle: saline with Tween-80 102 % of control | [5] 91 % of control | [6] 96 % of control

Source: PubChem BioAssay AID256 (DTP/NCI, 2004)
